The values that follow come from patent publication US10138255B2, “Piperazine derivatives as HIV protease inhibitors” (Merck Sharp & Dohme Corp., priority 2014, dated 2018).

Structures are written as SMILES.

The experiment deals with HIV-1 (H9IIIB strain). Description: Cell-Based HIV Infection Assay Using a Reporter (MT4-GFP cells). The note with it: Human immunodeficiency virus 1, inflection point (IP) of viral growth inhibition; MT4-GFP cells infected with HIV-1 H9IIIB; 50% normal human serum; mean of at least two independent experiments; read-out: Cell Based IP (50% NHS). A digest of the protocol: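 Inflection point from a 4-parameter curve of % viral growth inhibition, normalised to DMSO and triple-drug controls, using the 48 h/24 h ratio of GFP-positive cells (R0). MT4-GFP cells pre-infected 24 h with HIV-1 H9IIIB at low MOI; compounds tested in 50% normal human serum, 0.4% DMSO; mean of ≥2 experiments.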

Consider `COC(=O)N[C@H](C(=O)Nc1cccc(F)c1CC[C@H]1CN[C@@H]2CCCS(=O)(=O)N1C2)C1(c2ccc(Cl)cc2)CCN(S(C)(=O)=O)CC1` [Example 175, methyl {(1S)-1-[4-(4-chlorophenyl)-1-(methylsulfonyl)piperidin-4-yl]-2-[(2-{2-[(6R,9S)-2,2-dioxido-2-thia-1,7-diazabicyclo[4.3.1]dec-9-yl]ethyl}-3-fluorophenyl)amino]-2-oxoethyl}carbamate], for which the EC50 was determined as 120 nM.

As to `CS(=O)(=O)N1CCC(c2ccc(Cl)cc2)([C@H](N)C(=O)Nc2cccc(F)c2CC[C@H]2CN[C@@H]3CCCS(=O)(=O)N2C3)CC1` [Example 176, (2S)-2-amino-2-[4-(4-chlorophenyl)-1-(methylsulfonyl)piperidin-4-yl]-N-(2-{2-[(6R,9S)-2,2-dioxido-2-thia-1,7-diazabicyclo[4.3.1]dec-9-yl]ethyl}-3-fluorophenyl)ethanamide], the EC50 turned out to be 150 nM.

Consider `CCCN[C@H](C(=O)N[C@H]1CCC[C@@H]1CC[C@H]1CN[C@@H]2CCCS(=O)(=O)N1C2)[C@@H](c1ccc(Cl)cc1)C1CCOC(C)(C)C1` (stereo partly drawn) [Example 177, (βR)-4-chloro-β-(2,2-dimethyltetrahydro-2H-pyran-4-yl)-N-[(1S,2R)-2-{2-[(6R,9S)-2,2-dioxido-2-thia-1,7-diazabicyclo[4.3.1]dec-9-yl]ethyl}cyclopentyl]-Nα-propyl-L-phenylalaninamide], for which the EC50 was determined as 400 nM.

`COC(=O)N[C@H](C(=O)Nc1cncc(F)c1CC[C@H]1CN[C@@H]2CCCS(=O)(=O)N1C2)[C@@H](c1ccc(F)cc1)C1CCOCC1` [Example 178, methyl {(1S)-2-[(4-{2-[(6R,9S)-2,2-dioxido-2-thia-1,7-diazabicyclo[4.3.1]dec-9-yl]ethyl}-5-fluoropyridin-3-yl)amino]-1-[(R)-(4-fluorophenyl)(tetrahydro-2H-pyran-4-yl)methyl]-2-oxoethyl}carbamate]: the EC50 was 160 nM.

Consider `CC1(C)CC([C@H](c2ccc(F)cc2)[C@H](N)C(=O)Nc2ccc(F)c(F)c2CC[C@H]2CN[C@@H]3CCCS(=O)(=O)N2C3)CCO1` (stereo partly drawn) [Example 179, (βR)-β-(2,2-dimethyltetrahydro-2H-pyran-4-yl)-N-(2-{2-[(6R,9S)-2,2-dioxido-2-thia-1,7-diazabicyclo[4.3.1]dec-9-yl]ethyl}-3,4-difluorophenyl)-4-fluoro-L-phenylalaninamide], for which the EC50 is 31 nM.

As to `CO[C@H]1CC[C@H]([C@H](c2ccc(F)cc2)[C@H](N)C(=O)Nc2ccc(F)c(F)c2CC[C@H]2CN[C@@H]3CCCS(=O)(=O)N2C3)CC1` [Example 180, (βR)-N-(2-{2-[(6R,9S)-2,2-dioxido-2-thia-1,7-diazabicyclo[4.3.1]dec-9-yl]ethyl}-3,4-difluorophenyl)-4-fluoro-β-[(1r,4R)-4-methoxycyclohexyl]-L-phenylalaninamide], the EC50 was 11 nM.

Take `CC1(C)CC([C@H](c2ccc(Cl)cc2)[C@H](NCC2CC2)C(=O)N[C@H]2CCC[C@@H]2CC[C@H]2CN[C@@H]3CCCS(=O)(=O)N2C3)CCO1` (stereo partly drawn) [Example 181, (βR)-4-chloro-Nα-(cyclopropylmethyl)-β-(2,2-dimethyltetrahydro-2H-pyran-4-yl)-N-[(1S,2R)-2-{2-[(6R,9S)-2,2-dioxido-2-thia-1,7-diazabicyclo[4.3.1]dec-9-yl]ethyl)cyclopentyl]-L-phenylalaninamide]: the EC50 is 640 nM.

As for `COCCN[C@H](C(=O)N[C@H]1CCC[C@@H]1CC[C@H]1CN[C@@H]2CCCS(=O)(=O)N1C2)[C@@H](c1ccc(Cl)cc1)C1CCOC(C)(C)C1` (stereo partly drawn) [Example 182, (βR)-4-chloro-β-(2,2-dimethyltetrahydro-2H-pyran-4-yl)-N-[(1S,2R)-2-{2-[(6R,9S)-2,2-dioxido-2-thia-1,7-diazabicyclo[4.3.1]dec-9-yl]ethyl}cyclopentyl]-Nα-(2-methoxyethyl)-L-phenylalaninamide], the EC50 worked out at 70 nM.

With `CC[C@H](C)N[C@H](C(=O)N[C@H]1CCC[C@@H]1CC[C@H]1CN[C@@H]2CCCS(=O)(=O)N1C2)[C@@H](c1ccc(Cl)cc1)C1CCOC(C)(C)C1` (stereo partly drawn) [Example 183, (βR)-4-chloro-β-(2,2-dimethyltetrahydro-2H-pyran-4-yl)-N-[(1S,2R)-2-{2-[(6R,9S)-2,2-dioxido-2-thia-1,7-diazabicyclo[4.3.1]dec-9-yl]ethyl}cyclopentyl]-Nα-[(1S)-1-methylpropyl]-L-phenylalaninamide], the EC50 was 1300 nM.

`CC1(C)CC([C@H](c2ccc(Cl)cc2)[C@H](NCCCC(F)(F)F)C(=O)N[C@H]2CCC[C@@H]2CC[C@H]2CN[C@@H]3CCCS(=O)(=O)N2C3)CCO1` (stereo partly drawn) [Example 184, (βR)-4-chloro-β-(2,2-dimethyltetrdhydro-2H-pyran-4-yl)-N-[(1S,2R)-2-{2-[(6R,9S)-2,2-dioxido-2-thia-1,7-diazabicyclo[4.3.1]dec-9-yl]ethyl}cyclopentyl]-Nα-(4,4,4-trifluorobutyl)-L-phenylalaninamide]: the EC50 worked out at 330 nM.

Consider `N[C@H](C(=O)Nc1cccc(F)c1CC[C@H]1CN[C@@H]2CCCS(=O)(=O)N1C2)C1(c2ccc(Cl)cc2)CCNCC1` [Example 185, (2S)-2-amino-2-[4-(4-chlorophenyl)piperidin-4-yl]-N-(2-{2-[(6R,9S)-2,2-dioxido-2-thia-1,7-diazabicyclo[4.3.1]dec-9-yl]ethyl}-3-fluorophenyl)ethanamide], for which the EC50 is 3300 nM.

As for `CS(=O)(=O)N1CCC([C@H](c2ccc(F)cc2)[C@H](N)C(=O)Nc2cccc(F)c2CC[C@H]2CN[C@@H]3CCCS(=O)(=O)N2C3)CC1` [Example 186, (βR)-N-(2-{2-[(6R,9S)-2,2-dioxido-2-thia-1,7-diazabicyclo[4.3.1]dec-9-yl]ethyl}-3-fluorophenyl)-4-fluoro-β-[1-(methylsulfonyl)piperidin-4-yl]-L-phenylalaninamide], the EC50 worked out at 33 nM.

On to `COC(=O)N[C@H](C(=O)Nc1cccc(F)c1CC[C@H]1CN[C@@H]2CCCS(=O)(=O)N1C2)[C@@H](c1ccc(Cl)cc1)[C@H]1CC[C@H](OC)CC1` [Example 187, methyl {(1S,2R)-2-(4-chlorophenyl)-1-[(2-{2-[(6R,9S)-2,2-dioxido-2-thia-1,7-diazabicyclo[4.3.1]dec-9-yl]ethyl}-3-fluorophenyl)carbamoyl]-2-[(1r,4R)-4-methoxycyclohexyl]ethyl}carbamate], for which the EC50 turned out to be 3.2 nM.

On to `C[C@@H]1CC([C@H](c2ccc(F)cc2)[C@H](N)C(=O)Nc2cc(F)ccc2CC[C@H]2CN[C@@H]3CCCS(=O)(=O)N2C3)C[C@H](C)O1` (stereo partly drawn) [Example 188, (βR)-β-[(2S,2R)-2,6-dimethyltetrahydro-2H-pyran-4-yl]-N-(2-{2-[(6R,9S)-2,2-dioxido-2-thia-1,7-diazabicyclo[4.3.1]dec-9-yl]ethyl}-5-fluorophenyl)-4-fluoro-L-phenylalaninamide], for which the EC50 amounted to 25 nM.

On to `CO[C@H]1CC[C@H]([C@H](c2ccc(F)cc2)[C@H](N)C(=O)N[C@H]2CCCC[C@@H]2CC[C@H]2CN[C@@H]3CCCS(=O)(=O)N2C3)CC1` [Example 189, (βR)-N-[(1S,2R)-2-{2-[(6R,9S)-2,2-dioxido-2-thia-1,7-diazabicyclo[4.3.1]dec-9-yl]ethyl}cyclohexyl]-4-fluoro-β-[(1r,4R)-4-methoxycyclohexyl]-L-phenylalaninamide], for which the EC50 was found to be 45 nM.

In the case of `CC1(C)C[C@@H]([C@H](c2ccc(Cl)cc2)[C@H](N)C(=O)Nc2c(F)ccc(F)c2CC[C@H]2CN[C@@H]3CCCS(=O)(=O)N2C3)CCO1` [Example 194, (βR)-4-chloro-β-[(4S)-2,2-dimethyltetrahydro-2H-pyran-4-yl]-N-(2-{2-[(6R,9S)-2,2-dioxido-2-thia-1,7-diazabicyclo[4.3.1]dec-9-yl]ethyl}-3,6-difluorophenyl)-L-phenylalaninamide], the EC50 was 19 nM.

On to `N[C@H](C(=O)Nc1cncc(F)c1CC[C@H]1CN[C@@H]2CCCS(=O)(=O)N1C2)[C@@H](c1ccc(F)cc1)C1CCOCC1` [Example 195, (βR)-N-(4-{2-[(6R,9S)-2,2-dioxido-2-thia-1,7-diazabicyclo[4.3.1]dec-9-yl]ethyl}-5-fluoropyridin-3-yl)-4-fluoro-β-(tetrahydro-2H-pyran-4-yl)-L-phenylalaninamide], for which the EC50 is 67 nM.

In the case of `C[C@@H]1CC([C@H](c2ccc(Cl)cc2)[C@H](N)C(=O)N[C@H]2CCC[C@@H]2CC[C@H]2CN[C@@H]3CCCS(=O)(=O)N2C3)C[C@H](C)O1` (stereo partly drawn) [Example 196, (βR)-4-chloro-β-[(2R,4s,6S)-2,6-dimethyltetrahydro-2H-pyran-4-yl]-N-[(1S,2R)-2-{2-[(6R,9S)-2,2-dioxido-2-thia-1,7-diazabicyclo[4.3.1]dec-9-yl]ethyl}cyclopentyl]-L-phenylalaninamide], the EC50 is 120 nM.

As for `COC(=O)N[C@H](C(=O)Nc1c(F)ccc(F)c1CC[C@H]1CN[C@@H]2CCCS(=O)(=O)N1C2)[C@@H](c1ccc(Cl)cc1)[C@H]1CCOC(C)(C)C1` [Example 200, methyl {(1S,2R)-2-(4-chlorophenyl)-2-[(4S)-2,2-dimethyltetrahydro-2H-pyran-4-yl]-1-[(2-{2-[(6R,9S)-2,2-dioxido-2-thia-1,7-diazabicyclo[4.3.1]dec-9-yl]ethyl}-3,6-difluorophenyl)carbamoyl]ethyl}carbamate], the EC50 was found to be 35 nM.

On to `COC(=O)N[C@H](C(=O)Nc1cccc(F)c1CC[C@H]1CN[C@@H]2CCCS(=O)(=O)N1C2)[C@@H](c1ccc(F)cc1)[C@H]1CC[C@H](O)CC1` [Example 201, methyl [(1S)-2-[(2-{2-[(6R,9S)-2,2-dioxido-2-thia-1,7-diazabicyclo[4.3.1]dec-9-yl]ethyl}-3-fluorophenyl)amino]-1-{(R)-(4-fluorophenyl)[(1r,4R)-4-hydroxycyclohexyl]methyl}-2-oxoethyl]carbamate], for which the EC50 came out at 220 nM.
